Target: RagB-RagC heterodimer (RagB monitored) (Homo sapiens, UniProt Q5VZM2)
Experiment: GDP dissociation assay
Format: binding
Conditions: GDP on wild-type RagB with Rag^X partner; not altered by FLCN-FNIP

Chain of RagB-RagC heterodimer (RagB monitored) (Q5VZM2 whole entry): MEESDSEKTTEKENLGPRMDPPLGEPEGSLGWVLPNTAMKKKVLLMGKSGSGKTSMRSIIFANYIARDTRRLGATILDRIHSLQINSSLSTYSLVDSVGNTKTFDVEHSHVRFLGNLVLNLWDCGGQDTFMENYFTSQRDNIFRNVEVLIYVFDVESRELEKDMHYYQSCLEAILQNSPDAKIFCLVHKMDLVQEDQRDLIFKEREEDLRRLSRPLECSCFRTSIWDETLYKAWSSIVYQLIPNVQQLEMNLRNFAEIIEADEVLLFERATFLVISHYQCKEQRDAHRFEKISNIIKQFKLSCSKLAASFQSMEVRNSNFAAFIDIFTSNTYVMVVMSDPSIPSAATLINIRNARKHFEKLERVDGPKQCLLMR
Chain of RagB-RagC heterodimer (RagB monitored) (Q9HB90 2-399 D181N partner): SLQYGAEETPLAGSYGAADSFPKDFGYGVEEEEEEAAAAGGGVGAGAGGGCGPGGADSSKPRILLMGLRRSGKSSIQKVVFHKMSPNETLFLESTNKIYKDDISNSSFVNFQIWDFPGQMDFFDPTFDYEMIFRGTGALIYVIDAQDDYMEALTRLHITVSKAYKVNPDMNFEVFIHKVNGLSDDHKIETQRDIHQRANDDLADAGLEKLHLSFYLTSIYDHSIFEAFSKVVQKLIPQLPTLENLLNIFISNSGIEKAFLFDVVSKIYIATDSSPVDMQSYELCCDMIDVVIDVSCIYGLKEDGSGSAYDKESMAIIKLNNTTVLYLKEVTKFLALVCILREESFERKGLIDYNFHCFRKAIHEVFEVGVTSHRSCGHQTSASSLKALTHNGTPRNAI

SMILES: Nc1nc2c(ncn2[C@@H]2O[C@H](COP(=O)(O)OP(=O)(O)O)[C@@H](O)[C@H]2O)c(=O)[nH]1 [GDP]
- GDP dissociation assay: did not stimulate or inhibit the dissociation of GDP from RagB or RagC
